Laboratory results published in patent US9932354B2, “Imidazo-oxadiazole and imidazo-thiadiazole derivatives” (Ares Trading S.A., priority 2012, dated 2018).

Key:
[1] = test system: Amyloid-β peptide release (Aβ42), HEK cells overexpressing APP (HEK-APP); assay: Amyloid-β peptide release (Aβ42) assay, AlphaLISA on supernatant of HEK-APP cells; format: cell-based; conditions: Homo sapiens, HEK293, 24 h incubation with compound, read-out: Ab42 IC50 Ranges
Method in brief: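 HEK-APP cells treated with compounds for 24 h at 37 °C, 5% CO2. Supernatant Aβ42 or total Aβ measured by AlphaLISA after 4.5 h with antibody beads (6E10 acceptor beads for total). IC50 values derived.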

[2] = test system: Amyloid-β peptide release (AβTotal), HEK cells overexpressing APP (HEK-APP); assay: Amyloid-β peptide release (AβTotal) assay, AlphaLISA on supernatant of HEK-APP cells; format: cell-based; conditions: ratio Abtot vs Ab42, HEK-APP cells, 24 h

| SMILES | IC50 [1] [µM] | Abtot/Ab42 selectivity ranges [2] |
| --- | --- | --- |
| Cc1ncc2oc(-c3ccc(NC(=O)C(c4ccccc4)c4ccccc4)cn3)nn12 [Example 80, N-[6-(5-Methyl-imidazo[5,1-b][1,2,4]oxadiazol-2-yl)-pyridin-3-yl]-2,2-diphenyl-acetamide] | 0.5 to 1 | c (c: 50 fold > selectivity ≥ 10 fold) |
| Cc1ncc2oc(-c3ccc(NC(=O)Cc4ccccc4OC(F)(F)F)cn3)nn12 [Example 81, N-[6-(5-Methyl-imidazo[5,1-b][1,2,4]oxadiazol-2-yl)-pyridin-3-yl]-2-(2-trifluoromethoxy-phenyl)-acetamide] | 1 to 2.2 | c (c: 50 fold > selectivity ≥ 10 fold) |
| Cc1ncc2oc(-c3ccc(NC(=O)Cc4ccc(Cl)cc4Cl)cn3)nn12 [Example 82] | 1 to 2.2 | c (c: 50 fold > selectivity ≥ 10 fold) |
| Cc1ncc2oc(-c3ccc(NC(=O)Cc4ccccc4C(F)(F)F)cn3)nn12 [Example 83, N-[6-(5-Methyl-imidazo[5,1-b][1,2,4]oxadiazol-2-yl)-pyridin-3-yl]-2-(2-trifluoromethyl-phenyl)-acetamide] | 1 to 2.2 | c (c: 50 fold > selectivity ≥ 10 fold) |
| Cc1ncc2oc(-c3ccc(NC(=O)C4(c5ccc(Cl)cc5)CCC4)cn3)nn12 [Example 84, 1-(4-Chloro-phenyl)-cyclobutanecarboxylic acid [6-(5-methyl-imidazo[5,1-b][1,2,4]oxadiazol-2-yl)-pyridin-3-yl]-amide] | 0.5 to 1 | c (c: 50 fold > selectivity ≥ 10 fold) |
| CCC(C(=O)Nc1ccc(-c2nn3c(C)ncc3o2)nc1)c1ccccc1 (stereo not shown) [Example 85, N-[6-(5-Methyl-imidazo[5,1-b][1,2,4]oxadiazol-2-yl)-pyridin-3-yl]-2-phenyl-butyramide] | 1 to 2.2 | c (c: 50 fold > selectivity ≥ 10 fold) |
| Cc1ncc2oc(-c3ccc(C(=O)NCc4cccc5ccccc45)cc3)nn12 [Example 86, 4-(5-methylimidazo[5,1-b][1,3,4]oxadiazol-2-yl)-N-(naphthalen-1-ylmethyl)benzamide] | 0.5 to 1 | b (b: 100 fold > selectivity ≥ 50 fold) |
| Cc1ncc2oc(-c3ccc(C(=O)NCc4cccc(Cl)c4Cl)cc3)nn12 [Example 87, N-(2,3-dichlorobenzyl)-4-(5-methylimidazo[5,1-b][1,3,4]oxadiazol-2-yl)benzamide] | 1 to 2.2 | c (c: 50 fold > selectivity ≥ 10 fold) |
| Cc1ncc2oc(-c3ccc(C(=O)NCc4csc5ccc(Cl)cc45)cc3)nn12 [Example 88, N-((5-chlorobenzo[b]thiophen-3-yl)methyl)-4-(5-methylimidazo[5,1-b][1,3,4]oxadiazol-2-yl)benzamide] | 1 to 2.2 | c (c: 50 fold > selectivity ≥ 10 fold) |
| Cc1ncc2sc(C(=O)N(Cc3ccccc3)CC(C)C)nn12 [Example 89, 5-Methyl-imidazo[5,1-b][1,3,4]thiadiazole-2-carboxylic acid benzyl-isobutyl-amide] | 0.1 to 0.5 | d (d: 10 fold > selectivity) |
| CCOc1ccccc1C(C)NC(=O)c1nn2c(C)ncc2s1 (stereo not shown) [Example 90, 5-Methyl-imidazo[5,1-b][1,3,4]thiadiazole-2-carboxylic acid [1-(2-ethoxy-phenyl)-ethyl]-amide] | 0.5 to 1 | d (d: 10 fold > selectivity) |
| Cc1ncc2sc(C(=O)NC(c3ccc(Cl)cc3)C3CC3)nn12 (stereo not shown) [Example 91, 5-Methyl-imidazo[5,1-b][1,3,4]thiadiazole-2-carboxylic acid [(4-chloro-phenyl)-cyclopropyl-methyl]-amide] | 1 to 2.2 | d (d: 10 fold > selectivity) |
| Cc1ncc2sc(C(=O)NCc3ccccc3OCC(F)(F)F)nn12 [Example 92, 5-Methyl-imidazo[5,1-b][1,3,4]thiadiazole-2-carboxylic acid 2-(2,2,2-trifluoro-ethoxy)-benzylamide] | < 0.1 | d (d: 10 fold > selectivity) |
| Cc1ncc2sc(C(=O)N3CCCC3c3ccccc3)nn12 (stereo not shown) [Example 93, (5-Methyl-imidazo[5,1-b][1,3,4]thiadiazol-2-yl)-(2-phenyl-pyrrolidin-1-yl)-methanone] | 0.1 to 0.5 | d (d: 10 fold > selectivity) |
| Cc1ncc2sc(C(=O)NCCc3c[nH]c4ccccc34)nn12 [Example 94, 5-Methyl-imidazo[5,1-b][1,3,4]thiadiazole-2-carboxylic acid [2-(1H-indol-3-yl)-ethyl]-amide] | 0.5 to 1 | d (d: 10 fold > selectivity) |
| Cc1ncc2sc(C(=O)N(C)Cc3cccc(Cl)c3)nn12 [Example 95, 5-Methyl-imidazo[5,1-b][1,3,4]thiadiazole-2-carboxylic acid (3-chloro-benzyl)-methyl-amide] | 0.5 to 1 | d (d: 10 fold > selectivity) |

| SMILES | IC50 [1] [µM] | Abtot/Ab42 selectivity ranges [2] |
| --- | --- | --- |
| CCOc1ccccc1CNC(=O)c1nn2c(C)ncc2s1 [Example 96, 5-Methyl-imidazo[5,1-b][1,3,4]thiadiazole-2-carboxylic acid 2-ethoxy-benzylamide] | 0.5 to 1 | d (d: 10 fold > selectivity) |
| Cc1ncc2sc(C(=O)N(C)CCc3ccccc3)nn12 [Example 97, 5-Methyl-imidazo[5,1-b][1,3,4]thiadiazole-2-carboxylic acid methyl-phenethyl-amide] | 0.5 to 1 | d (d: 10 fold > selectivity) |
| Cc1ncc2sc(C(=O)N(C)Cc3ccccc3)nn12 [Example 98, 5-Methyl-imidazo[5,1-b][1,3,4]thiadiazole-2-carboxylic acid benzyl-methyl-amide] | 1 to 2.2 | d (d: 10 fold > selectivity) |
| CCN(Cc1ccccc1)C(=O)c1nn2c(C)ncc2s1 [Example 99, 5-Methyl-imidazo[5,1-b][1,3,4]thiadiazole-2-carboxylic acid benzyl-ethyl-amide] | 1 to 2.2 | d (d: 10 fold > selectivity) |
| Cc1ncc2sc(-c3ccc(NC(=O)Cc4cccc(C(F)(F)F)c4)cc3)nn12 [Example 100, N-[4-(5-Methyl-imidazo[5,1-b][1,3,4]thiadiazol-2-yl)-phenyl]-2-(3-trifluoromethyl-phenyl)-acetamide] | 0.1 to 0.5 | b (b: 100 fold > selectivity ≥ 50 fold) |
| Cc1ncc2sc(C(=O)N(C)Cc3cccc(C(F)(F)F)c3)nn12 [Example 101, 5-Methyl-imidazo[5,1-b][1,3,4]thiadiazole-2-carboxylic acid methyl-(3-trifluoromethyl-benzyl)-amide] | 0.5 to 1 | d (d: 10 fold > selectivity) |
| Cc1ncc2sc(-c3nnc(NCc4ccc(Cl)c(Cl)c4)o3)nn12 [Example 102, (3,4-Dichloro-benzyl)-[5-(5-methyl-imidazo[5,1-b][1,3,4]thiadiazol-2-yl)-[1,3,4]oxadiazol-2-yl]-amine] | 0.1 to 0.5 | d (d: 10 fold > selectivity) |
| Cc1ncc2sc(-c3nnc(NCc4ccc(F)cc4)o3)nn12 [Example 103, (4-Fluoro-benzyl)-[5-(5-methyl-imidazo[5,1-b][1,3,4]thiadiazol-2-yl)-[1,3,4]oxadiazol-2-yl]-amine] | 0.5 to 1 | d (d: 10 fold > selectivity) |
| Cc1ncc2sc(-c3nnc(NCc4ccccc4F)o3)nn12 [Example 104, (2-Fluoro-benzyl)-[5-(5-methyl-imidazo[5,1-b][1,3,4]thiadiazol-2-yl)-[1,3,4]oxadiazol-2-yl]-amine] | 1 to 2.2 | d (d: 10 fold > selectivity) |
| Cc1ncc2sc(C(=O)NCc3cccc4ccccc34)nn12 [Example 105, 5-methyl-N-(naphthalen-1-ylmethyl)imidazo[5,1-b][1,3,4]thiadiazole-2-carboxamide] | 0.5 to 1 | d (d: 10 fold > selectivity) |
| Cc1ncc2sc(C(=O)NCc3ccc(Oc4ccc(F)cc4)cc3)nn12 [Example 106, 5-Methyl-imidazo[5,1-b][1,3,4]thiadiazole-2-carboxylic acid 4-(4-fluoro-phenoxy)-benzylamide] | 0.1 to 0.5 | b (b: 100 fold > selectivity ≥ 50 fold) |
| Cc1ncc2sc(C(=O)NCc3ccc(Oc4ccccc4)cc3)nn12 [Example 107, 5-Methyl-imidazo[5,1-b][1,3,4]thiadiazole-2-carboxylic acid 4-phenoxy-benzylamide] | 0.1 to 0.5 | c (c: 50 fold > selectivity ≥ 10 fold) |
| Cc1ncc2sc(C(=O)N3CCCCC3c3ccccc3)nn12 (stereo not shown) [Example 108, (5-Methyl-imidazo[5,1-b][1,3,4]thiadiazol-2-yl)-(2-phenyl-piperidin-1-yl)-methanone] | 0.5 to 1 | d (d: 10 fold > selectivity) |
| Cc1ncc2sc(C(=O)N3CCCC(c4ccc(F)cc4)C3)nn12 (stereo not shown) [Example 109, [3-(4-Fluoro-phenyl)-piperidin-1-yl]-(5-methyl-imidazo[5,1-b][1,3,4]thiadiazol-2-yl)-methanone] | 1 to 2.2 | d (d: 10 fold > selectivity) |
| Cc1ncc2sc(C(=O)N3CCCC3c3ccc(Br)cc3)nn12 (stereo not shown) [Example 110, [2-(4-Bromo-phenyl)-pyrrolidin-1-yl]-(5-methyl-imidazo[5,1-b][1,3,4]thiadiazol-2-yl)-methanone] | < 0.1 | d (d: 10 fold > selectivity) |
| Cc1ncc2sc(C(=O)NCc3ccccc3-c3ccccc3)nn12 [Example 111, 5-Methyl-imidazo[5,1-b][1,3,4]thiadiazole-2-carboxylic acid (biphenyl-2-ylmethyl)-amide] | 1 to 2.2 | d (d: 10 fold > selectivity) |
